“And” between values parts separate entries of the source, which are not always exact repeats. Equal values may be shown once.
Experiments:
[1] = tested on: KCl-induced cortical spreading depression; assay: Cortical spreading depression (CSD) assay as model of migraine; type: in vivo, Sprague-Dawley rats; settings: rats, 100 mg/kg/day p.o. for 35 days
Procedure: Cortical spreading depression (CSD) has been implicated in migraine and as a headache trigger, and can be evoked in experimental animals by electrical or chemical stimulation (Kunkler & Kraig, 2003; Lauritzen et al., 1982; Moskowitz, 1984).
(§1) Adult male Sprague-Dawley rats (250-600 g) were divided into two treatment groups: vehicle (0.5% methylcellulose; n=13) and Compound #1 (100 mg/kg/day, p.o.; n=7). Results were compared to historical positive controls with valproic acid at 200 mg/kg/day, i.p.
Vehicle or Compound #1 was administered orally once a day for 35 days. On the last day of treatment, rats continued to receive food and water ad libitum, and were given their daily oral dose of vehicle or Compound #1 approximately 1.5 h prior to CSD testing. Rats were anesthetized using isoflurane and intubated via a tracheotomy for mechanical ventilation. Body temperature, blood pressure and heart rate were monitored throughout the procedure to ensure homeostasis. […] The steady (DC) potential and electrocorticogram (EcoG) were recorded with glass micropipettes filled with 200 mM NaCl, […] below the dural surface. […] The number of KCL-induced CSDs was counted for 2 hours. Propagation speed was calculated from the distance (mm) between the recording electrodes 1 and 2, divided by the latency (min) between the CSDs recorded at these sites. […]

[2] = Body weight and systemic physiology monitoring during CSD testing; type: in vivo, Sprague-Dawley rats; settings: rats, 100 mg/kg/day p.o. for 35 days
Procedure: as §1
Vehicle or Compound #1 was administered orally once a day for 35 days. On the last day of treatment, rats continued to receive food and water ad libitum, and were given their daily oral dose of vehicle or Compound #1 approximately 1.5 h prior to CSD testing. Rats were anesthetized using isoflurane and intubated via a tracheotomy for mechanical ventilation. Body temperature, blood pressure and heart rate were monitored throughout the procedure to ensure homeostasis. Rats were placed in a stereotaxic frame and three burr holes were drilled under saline cooling over the right hemisphere at the following coordinates (mm from bregma): (1) posterior 4.5, lateral 2.0 (occipital cortex): KCL application; (2) posterior 0.5, lateral 2.0 (parietal cortex): recording site 1; (3) anterior 2, lateral 2 (frontal cortex): recording site 2. Dura overlying the occipital cortex was gently removed. The steady (DC) potential and electrocorticogram (EcoG) were recorded with glass micropipettes filled with 200 mM NaCl, […] below the dural surface. An Ag/AgCl reference electrode was placed subcutaneously in the neck. Following surgical preparation, the cortex was allowed to recover for 30 minutes under saline irrigation. Cortical spreading depressions were initiated by placing a cotton ball soaked with 1 M KCl on the pial surface. The number of KCL-induced CSDs was counted for 2 hours. Propagation speed was calculated from the distance (mm) between the recording electrodes 1 and 2, divided by the latency (min) between the CSDs recorded at these sites.

[3] = tested on: KCl-induced cortical spreading depression; settings: historical positive control, 200 mg/kg/day i.p. for 4 weeks; saline vehicle 18; p<0.05; cited from earlier work

| Compound | Propagation Speed ([1]; KCl-induced CSD, vehicle 3.2 ± 1, p=0.06) | CSDs (2 h) ≧5 mV (number of KCl-induced cortical spreading depressions) ([1]; last dose approx. 1.5 h before testing, topical 1 M KCl, counted for 2 hours, vehicle 16 ± 3, p=0.12) | Physiological monitoring, including arterial pH, pCO2, pO2 and blood pressure, versus vehicle [2] | Systemic Physiology: BP (blood pressure) ([2]; during CSD testing) | Systemic Physiology: pCO2 ([2]; during CSD testing) | Systemic Physiology: pH (arterial) ([2]; during CSD testing) | Systemic Physiology: pO2 ([2]; during CSD testing) | Number of cortical spreading depressions [3] |
| --- | --- | --- | --- | --- | --- | --- | --- | --- |
| NS(=O)(=O)NCc1csc2ccccc12 [Compound #1, N-(benzo[b]thien-3-ylmethyl)-sulfamide] | 2.8 ± 0.3 mm/min | 12 and 12 ± 5 | did not differ between the groups | 102 ± 6 | 42 ± 6 | 7.4 ± 0.05 | 154 ± 23 |  |
| CCCC(CCC)C(=O)O [valproate, valproic acid] |  |  |  |  |  |  |  | 12 |

— US20070191461A1, “USE OF BENZO-HETEROARYL SULFAMIDE DERIVATIVES FOR THE TREATMENT OF MIGRAINE” (priority 2006, published 2007)
